These results are taken from ChEMBL document CHEMBL5126568, “Determination of Slow-Binding HDAC Inhibitor Potency and Subclass Selectivity” (ACS Med Chem Lett, 2022).

The target in test [1] is T1, Histone deacetylase 2 (Homo sapiens, UniProt Q92769). As to conditions: time 60.0 min.
The target in test [2] is T1, Histone deacetylase 2. Description: Inhibition of full length C-terminal FLAG-tagged HDAC2 (unknown origin) assessed as inhibition constant (Ki) using (Ac-Leu-Gly-Lys(Ac)-AMC as substrate measured every 30 sec for 60 mins by fluorescence based assay.
Test [3] addresses T2, Histone deacetylase 1 (Homo sapiens, UniProt Q13547). Description: Inhibition of full length C-terminal His-tagged HDAC1 (unknown origin) assessed as inhibition constant (Ki) using (Ac-Leu-Gly-Lys(Ac)-AMC as substrate measured every 30 sec for 60 mins by fluorescence based assay.
The target of test [4] is T2, Histone deacetylase 1. Kind of test: Inhibition of full length C-terminal His-tagged HDAC1 (unknown origin) using (Ac-Leu-Gly-Lys(Ac)-AMC as substrate preincubated with enzyme for 30 mins followed by substrate addition and measured after 30 mins by fluorescence based assay.
For test [5], the target named is T2, Histone deacetylase 1. Kind of test: Inhibition of full length C-terminal His-tagged HDAC1 (unknown origin) using (Ac-Leu-Gly-Lys(Ac)-AMC as substrate preincubated with enzyme for 1 hrs followed by substrate addition and measured after 30 mins by fluorescence based assay.
Test [6] has as its target T2, Histone deacetylase 1. Kind of test: Inhibition of full length C-terminal His-tagged HDAC1 (unknown origin) using (Ac-Leu-Gly-Lys(Ac)-AMC as substrate preincubated with enzyme for 2 hrs followed by substrate addition and measured after 30 mins by fluorescence based assay.
Test [7] has as its target T1, Histone deacetylase 2. Kind of test: Inhibition of full length C-terminal FLAG-tagged HDAC2 (unknown origin) using (Ac-Leu-Gly-Lys(Ac)-AMC as substrate preincubated with enzyme for 30 mins followed by substrate addition and measured after 30 mins by fluorescence based assay.
Test [8] concerns the target T1, Histone deacetylase 2. Description: Inhibition of full length C-terminal FLAG-tagged HDAC2 (unknown origin) using (Ac-Leu-Gly-Lys(Ac)-AMC as substrate preincubated with enzyme for 1 hrs followed by substrate addition and measured after 30 mins by fluorescence based assay.
Test [9] addresses T1, Histone deacetylase 2. Description: Inhibition of full length C-terminal FLAG-tagged HDAC2 (unknown origin) using (Ac-Leu-Gly-Lys(Ac)-AMC as substrate preincubated with enzyme for 2 hrs followed by substrate addition and measured after 30 mins by fluorescence based assay.
For test [10], the target named is T2, Histone deacetylase 1. Description: Inhibition of full length C-terminal His-tagged HDAC1 (unknown origin) assessed as rate constant (k1) of EI complex using (Ac-Leu-Gly-Lys(Ac)-AMC as substrate measured every 30 sec for 60 mins by fluorescence based assay.
The target of test [11] is T1, Histone deacetylase 2. Description: Inhibition of full length C-terminal FLAG-tagged HDAC2 (unknown origin) assessed as rate constant (k1) of EI complex using (Ac-Leu-Gly-Lys(Ac)-AMC as substrate measured every 30 sec for 60 mins by fluorescence based assay.
Test [12] deals with T2, Histone deacetylase 1. Kind of test: Inhibition of full length C-terminal His-tagged HDAC1 (unknown origin) assessed as rate constant (k-1) of EI complex using (Ac-Leu-Gly-Lys(Ac)-AMC as substrate measured every 30 sec for 60 mins by fluorescence based assay.
In test [13] the target is T1, Histone deacetylase 2. Description: Inhibition of full length C-terminal FLAG-tagged HDAC2 (unknown origin) assessed as rate constant (k-1) of EI complex using (Ac-Leu-Gly-Lys(Ac)-AMC as substrate measured every 30 sec for 60 mins by fluorescence based assay.
Test [14] deals with T2, Histone deacetylase 1. As to conditions: time 60.0 min.

The structures appear in SMILES notation.

T1 sequence (Q92769 whole entry): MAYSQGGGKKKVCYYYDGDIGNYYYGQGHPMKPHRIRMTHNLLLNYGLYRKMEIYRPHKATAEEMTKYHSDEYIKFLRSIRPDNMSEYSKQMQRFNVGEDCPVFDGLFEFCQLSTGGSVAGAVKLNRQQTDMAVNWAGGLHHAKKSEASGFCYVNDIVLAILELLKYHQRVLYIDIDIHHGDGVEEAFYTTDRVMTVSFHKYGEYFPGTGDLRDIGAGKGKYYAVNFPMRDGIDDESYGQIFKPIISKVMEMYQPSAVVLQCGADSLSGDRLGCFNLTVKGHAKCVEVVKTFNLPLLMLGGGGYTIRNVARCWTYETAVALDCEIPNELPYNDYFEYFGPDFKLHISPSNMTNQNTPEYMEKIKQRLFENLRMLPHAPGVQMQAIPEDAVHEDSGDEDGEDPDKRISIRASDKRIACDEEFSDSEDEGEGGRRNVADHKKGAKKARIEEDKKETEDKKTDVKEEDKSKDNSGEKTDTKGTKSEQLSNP
T2 sequence (Q13547 whole entry): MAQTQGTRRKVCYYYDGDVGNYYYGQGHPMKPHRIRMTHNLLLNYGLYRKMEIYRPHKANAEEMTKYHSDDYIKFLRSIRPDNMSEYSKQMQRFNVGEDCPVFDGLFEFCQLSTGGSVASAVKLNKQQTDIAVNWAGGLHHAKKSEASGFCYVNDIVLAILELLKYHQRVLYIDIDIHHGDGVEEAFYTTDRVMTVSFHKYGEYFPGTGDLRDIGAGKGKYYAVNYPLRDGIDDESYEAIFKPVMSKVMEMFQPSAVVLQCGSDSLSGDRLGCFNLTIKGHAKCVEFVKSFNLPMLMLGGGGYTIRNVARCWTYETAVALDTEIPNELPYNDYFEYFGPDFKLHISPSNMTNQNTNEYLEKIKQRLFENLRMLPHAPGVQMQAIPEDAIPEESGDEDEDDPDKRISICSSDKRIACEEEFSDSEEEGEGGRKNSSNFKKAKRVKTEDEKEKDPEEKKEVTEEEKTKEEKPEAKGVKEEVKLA

`Nc1ccccc1NC(=O)c1ccc(CNC(=O)OCc2cccnc2)cc1`: in test [1], the T1/2 was more than 4 h.
As a reminder, the Ki is a dissociation constant, usually derived from enzyme kinetics or from competition with a known ligand. By IC50 is commonly meant the concentration needed to halve the response being measured. A lower IC50 goes with higher potency. On to `CCCNNC(=O)c1ccc(CNC(=O)/C=C/c2ccccc2)cc1`, for which the Ki was 0.103 µM in test [2] and 0.04 µM in [3]. Besides, the half-inhibitory concentration (IC50) is 0.0113 µM in test [4]; 0.00707 µM in test [5]; 0.00489 µM in [6]; 0.048 µM in test [7]; 0.0248 µM in test [8]; 0.014 µM in test [9]. Moreover, the K in test [10] is 7.8 10^-5/nM/min; in test [11], 5.1 10^-5/nM/min; in test [12] it was 3 10^-3/min; in test [13], 5 10^-3/min. For the same compound, the figures for the T1/2 in [14] and in test [1] were 3.67 h and 2.17 h, respectively.
